Experimental data from US8846739B2, “TGR5 agonists” (Exelixis Patent Company LLC, priority 2009, dated 2014).

Columns and labels:
[1] = target: T1, h-TGR5 (Homo sapiens, UniProt Q8TDU6); assay: TGR5 cAMP Assay using Cisbio cAMP Dynamic 2 htrf assay kit; type: cell-based; settings: hTGR5CRE-luc HEK 293 cells
T1 sequence (Q8TDU6 1-330): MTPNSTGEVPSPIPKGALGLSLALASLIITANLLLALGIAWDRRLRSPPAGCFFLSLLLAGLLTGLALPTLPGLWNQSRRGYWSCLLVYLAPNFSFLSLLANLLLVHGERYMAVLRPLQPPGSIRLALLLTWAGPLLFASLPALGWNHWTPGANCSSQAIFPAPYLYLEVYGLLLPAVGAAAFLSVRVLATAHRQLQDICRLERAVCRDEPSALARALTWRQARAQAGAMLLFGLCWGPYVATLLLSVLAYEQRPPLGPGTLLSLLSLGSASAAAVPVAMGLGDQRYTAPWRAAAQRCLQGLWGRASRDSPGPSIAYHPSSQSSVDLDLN

[2] = target: T2, human TGR5 (h-TGR5) (Homo sapiens, UniProt Q8TDU6); assay: TGR5/CRE-Luciferase Assay; type: cell-based; settings: HEK 293 hTGR5/CRE-Luc cells, 6 hours incubation, read-out: CRE-Luc Agonist (EC50)
T2 sequence (Q8TDU6 1-330): T1 sequence (Q8TDU6 1-330)
How it was run: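 HEK 293 CRE-Luciferase cells stably expressing the receptor, plated in DMEM 18-20 h before assay, then exposed to serially diluted compounds (DMEM with 5% DMSO) for 6 h. Luciferase read-out after lysis; EC50 from dose-response.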

Compound | EC50 [1] [nM] | EC50 [2] [nM]
COc1cc(C(C)(C)c2cnc(SCc3c(F)cc(S(=O)(=O)N(C)[C@@H](CCC[N+](C)(C)C)C(=O)O)cc3F)n2-c2ccc(F)cc2)ccc1F [Compound 14e, (S)-4-carboxy-4-(3,5-difluoro-4-((5-(2-(4-luoro-3-methoxyphenyl)propan-2-yl)-1-(4-fluorophenyl)-1H-imidazol-2-ylthio)methyl)-N-methylphenylsulfonamido)-N,N,N-trimethylbutan-1-aminium chloride] | < 100 | < 100
COc1cc(C(C)(C)c2cnc(SCc3c(F)cc(S(=O)(=O)N4CCC([N+](C)(C)C)CC4)cc3Cl)n2-c2ccc(F)cc2)ccc1F [Compound 11o, 1-{[3-chloro-5-fluoro-4-({[5-{1-[4-fluoro-3-(methyloxy)phenyl]-1-methylethyl}-1-(4-fluorophenyl)-1H-imidazol-2-yl]thio}methyl)phenyl]sulfonyl}-N,N,N-trimethylpiperidin-4-aminium] | < 100 | < 100
COc1cc(C(C)(C)c2cnc(SCc3c(F)cc(S(=O)(=O)N4CCC([N+](C)(C)C)CC4)cc3F)n2-c2ccc(F)cc2)ccc1Cl [Compound 11c, 1-{[4-({[5-{1-[4-chloro-3-(methyloxy)phenyl]-1-methylethyl}-1-(4-fluorophenyl)-1H-imidazol-2-yl]thio}methyl)-3,5-difluorophenyl]sulfonyl}-N,N,N-trimethylpiperidin-4-aminium] | < 100 | < 100
COc1cc(C(C)(C)c2cnc(SCc3c(F)cc(C(=O)N[C@H]4CC[N+](C)(C)C4)cc3Cl)n2-c2ccc(F)cc2)ccc1F [Example 2q, (3S)-3-({[3-chloro-5-fluoro-4-({[5-{1-[4-fluoro-3-(methyloxy)phenyl]-1-methylethyl}-1-(4-fluorophenyl)-1H-imidazol-2-yl]thio}methyl)phenyl]carbonyl}amino)-1,1-dimethylpyrrolidinium] | < 100 | < 100
COc1cc(C(C)(C)c2cnc(SCc3c(F)cc(S(=O)(=O)N4CCC[C@H]([N+](C)(C)C)C4)cc3Cl)n2-c2ccc(F)cc2)ccc1Cl [Compound 11h, (3S)-1-{[3-chloro-4-({[5-{1-[4-chloro-3-(methyloxy)phenyl]-1-methylethyl}-1-(4-fluorophenyl)-1H-imidazol-2-yl]thio}methyl)-5-fluorophenyl]sulfonyl}-N,N,N-trimethylpiperidin-3-aminium] | < 100 | < 100
COc1cc(C(C)(C)c2cnc(SCc3c(F)cc(S(=O)(=O)N(C)[C@@H](CCCCC[N+](C)(C)C)C(=O)O)cc3Cl)n2-c2ccc(F)cc2)ccc1Cl [Compound 17l, (S)-6-carboxy-6-(3-chloro-4-((5-(2-(4-chloro-3-methoxyphenyl)propan-2-yl)-1-(4-fluorophenyl)-1H-imidazol-2-ylthio)methyl)-5-fluoro-N-methylphenylsulfonamido)-N,N,N-trimethylhexan-1-aminium 2,2,2-trifluoroacetate] | < 100 | < 100
COc1cc(C(C)(C)c2cnc(SCc3c(F)cc(S(=O)(=O)NCC[N+](C)(C)C)cc3F)n2-c2ccc(F)cc2)ccc1Cl [Example 6k, 2-({[4-({[5-{1-[4-chloro-3-(methyloxy)phenyl]-1-methylethyl}-1-(4-fluorophenyl)-1H-imidazol-2-yl]thio}methyl)-3,5-difluorophenyl]sulfonyl}amino)-N,N,N-trimethylethanaminium] | < 100 | < 100
COc1cc(C(C)(C)c2cnc(SCc3c(F)cc(C(=O)N[C@@H]4CC[N+](C)(C)C4)cc3Cl)n2-c2ccc(F)cc2)ccc1Cl [Example 2h, (3R)-3-({[3-chloro-4-({[5-{1-[4-chloro-3-(methyloxy)phenyl]-1-methylethyl}-1-(4-fluorophenyl)-1H-imidazol-2-yl]thio}methyl)-5-fluorophenyl]carbonyl}amino)-1,1-dimethylpyrrolidinium] | < 100 | < 100
